Laboratory results: US5977165A, “Radicicol derivatives” (Kyowa Hakko Kogyo Co., Ltd., priority 1995, dated 1999)
≈ marks a conversion by molar mass, not a printed value. Like-named read-outs stand apart in the source and are kept apart here.

Columns and labels:
[1] = system: HeLa S3 cells; test: Cell growth inhibition test on HeLa S3 cells; type: cell-based; details: Homo sapiens, read-out: IC50, cell growth inhibition activity upon HeLa S3 cells
Protocol: Cell Growth Inhibition Test on HeLa S3 Cells
HeLa S3 cells which have been adjusted to 3.0×10^4 cells/ml with MEM medium (manufactured by Nissui Pharmaceutically containing 10% fetal calf serum and 2 mM […] were dispensed in 0.1 ml/well portions into a 96 well microtiter plate. The cells were cultured at 37° C. for 20 hours in a carbon dioxide gas incubator, the culture supernatant was removed and then the plate was washed once with physiological saline. Next, 0.1 ml of the medium containing each test compound was added to each well, and the cells were cultured at 37° C. for 72 hours in the carbon dioxide gas incubator. After removing the culture supernatant, 0.1 ml of the medium containing 0.02% Neutral Red was added to each well, and the cells were stained at 37° C. for 1 hour in the carbon dioxide gas incubator. After removing the culture supernatant, the plate was washed once with physiological saline, the pigment was extracted with 0.001 N hydrochloric acid/30% ethanol and then absorption at 550 nm was measured by a microplate reader. The concentration of each test compound which inhibits 50% of the cell growth (IC50) was calculated by comparing the absorption of un-treated cells with that of the cells treated with known concentration of each sample.

[2] = system: sarcoma 180 solid tumor; test: Antitumor test on sarcoma 180 solid tumors; type: in vivo, mouse; details: ddY mice, intravenous injection 24 hours after s.c. transplantation, tumor volume at 7 days; dose not given
Protocol: Antitumor Test on Sarcoma 180 Solid Tumors
Seven days after transplantation of 5×10^6 of sarcoma 180 cells into the abdominal cavity of a ddY mouse, the cells were collected from the ascitic fluid, washed once with sterilized physiological saline and then made into a cell suspension of 5×10^7 cells/ml using sterilized physiological saline. A 0.1 ml portion of the cell suspension was transplanted under the skin of the right side axillary part of ddY mice of 20±2 g in body weight and, after 24 hours of the tumor transplantation, 0.1 to 0.2 ml of each test compound dissolved in physiological saline or polyoxyethylene sorbitan monolaurate-containing physiological saline was administered by intravenous injection to ddY mice of 5 animals per group. The major axis (a) and the minor axis (b) of each tumor 7 days after the transplantation were measured to calculate the tumor volume as an a×b^2 /2 value. Antitumor activity of each test compound was expressed by the ratio (T/C) of the tumor volume (T) of the test compound-administered group to the tumor volume (C) of the control group in which the drug was not administered.

[3] = system: P388 leukemia; test: Antitumor test on P388 leukemia; type: in vivo, mouse; details: CDF1 mice, 1×10^6 P388 cells i.p., compound into abdominal cavity 24 hours after transplantation, 30 days; dose not given
Protocol: Antitumor Test on P388 Leukemia
The ascitic fluid was collected from the abdominal cavity of P388 ascites-induced mouse (DBA/2) 7 days after the transplantation. The number of P388 cells in the ascitic fluid was counted to prepare a tumor cell suspension of 5×10^6 cells/ml using sterilized physiological saline, and its 0.2 ml portion (containing 1×10^6 cells) was transplanted into the abdominal cavity of CDF1 mice having 20 to 25 g in body weight. […] Effects of the test compounds were judged by the ratio of average survival days in the test compound-administered group to that in the control group (un-treated group) (increased life span, ILS %).

[4] = system: Eacillus subtilis No. 10707; test: Antibacterial activity test (agar dilution method); type: cell-based; details: pH 7, Eacillus subtilis No. 10707, read-out: Minimum growth inhibition concentration (MIC), BS
Protocol: (§1) Antibacterial Activity Test
(§2) the antibacterial activity was measured by an agar dilution method using a medium (pH 7) which has been prepared by dissolving 3 g of Bacto-Tryptone (manufactured by Difco), 3 g of meat extract, 1 g of yeast extract, 1 g of flucose and 16 g of agar in 1 l of water. The antibacterial activity was expressed by minimum growth inhibition concentration (MIC).
BS: Eacillus subtilis No. 10707

[5] = system: intracellular tyrosine kinase (v-Src tyrosine kinase, SR-3Y1 cells); test: Inhibition test of intracellular tyrosine kinase (tyrosine phosphorylation, Western blotting, SR-3Y1 cells); type: cell-based; details: Rattus norvegicus, SR3Y1, 37° C., 15 hours, tyrosine-phosphorylated protein, read-out: IC50, inhibitory activity of intracellular tyrosine kinase
Text: The inhibitory effect of the tyrosine kinase activity can be measured by carrying out Western blotting analysis with an anti-phosphotyrosine antibody using a rat fibroblast cell strain SR-3Y1 transformed with an oncogene v-Src (available from RIKEN Gene Bank) and calculating the amount of intracellular protein in which tyrosine is phosphorylated. Since the tyrosine phosphorylation level of intracellular protein in SR-3Y1 cells for use in this method is increased by v-Src tyrosine kinase, the ability of radicicol derivatives to inhibit v-Src tyrosine kinase can be detected as reduction of the amount of protein in which tyrosine is phosphorylated. Robinson, S. P. et al. [International Journal of Oncology, 2, 253 (1993)] report a method for examination of tyrosine phosphorylation inhibition effect by Western blotting analysis, and Kwon, H. J. et al. [Cancer Research, 52, 6926 (1992)] report examples of experiment using SR-3Y1 cells.
Inhibition Test of Intracellular Tyrosine Kinase
SR-3Y1 cells were cultured at 37° C. for 15 hours in an atmosphere of 5% carbon dioxide, using Dulbecco's modified Eagle's medium (DMEM) containing 10% fetal calf serum (FCS), to which each radicicol derivative to be tested has been added in varied concentration. The thus cultured cells were lysed at 4° C. for 20 minutes in a cooled buffer solution for lysis use (50 mM Tris HCl, pH 7.5, 150 mM NaCl, 1% Triton X-100, 0.1% SDS, 1% sodium deoxycholate, 2 mM EDTA, 1 mM PMSF, 20 μM leupeptin, 0.15 unit/ml aprotinin, 1 mM Na3 VO4) and then centrifuged at 20,000 g for 30 minutes. After measuring protein concentration in the resulting supernatant fluid, samples were adjusted to the same protein quantity per lane to carry out separation of protein by SDS-PAGE. The thus separated protein samples were transferred onto a nitrocellulose membrane to which were subsequently added a mouse […] phosphotyrosine antibody MX-pTYR (Kyowa Medex Co., Ltd.) as a first antibody and a horseradish peroxidase-conjugated […] (BIO-RAD Co.) as a second antibody, thereby effecting their reactions with the protein samples on the membrane. Detection was carried out using ECL reagent (Amersham Co.), and the amount of tyrosine-phosphorylated protein was determined by scanning the density of banks obtained on an X-ray film. The activity of radicicol derivative to inhibit tyrosine phosphorylation can be shown as a concentration (IC50) of each derivative by which the ratio of tyrosine-phosphorylated protein is reduced to half in comparison with a control to which the drug is not added.

[6] = system: Candida albicans ATCC 10231; test: Antibacterial activity test (agar dilution method); type: cell-based; details: ATCC10231, pH 7, Candida albicans ATCC 10231, read-out: Minimum growth inhibition concentration (MIC), CA
Protocol: as §1, §2
CA: Candida albicans ATCC 10231

[7] = system: T cell growth; test: T cell growth inhibition test by mixed mouse lymphocyte culture reaction; type: cell-based; details: 72 hours, 37° C., [^3 H]-thymidine incorporation, AKR spleen / B10.BR lymph node cells
Protocol: T Cell Growth Inhibition Test by Mixed Mouse Lymphocyte Culture Reaction
The spleen was excised aseptically from an AKR mouse (Japan SLC Co., Ltd.) and made into a single cell suspension. The suspension was mixed with mitomycin C (MMC) (Kyowa Hakko Kogyo Co., Ltd.) (final concentration, 50 μg/ml) and cultured at 37° C. for 30 minutes. After the culturing, the cells were washed three times with a solution (HBSS) prepared by adding 2.5% fetal calf serum (FCS, Gibco Co.) to Hanks' balanced salt solution (Gibco Co.) and then adjusted to a density of 1×10^7 cells/ml.
A 50 μl portion of B10.BR mouse (Japan SLC Co., Ltd.) lymph node cell suspension (containing 1.5×10^5 cells), 50 μl of AKR mouse spleen cell suspension (containing 5×10^5 cells) and 100 μl of radicicol solution having each test concentration were added to each well of a 96 well microtiter plate and cultured at 37° C. for 72 hours in a CO2 incubator. A 1.0 μCi portion of [^3 H]-thymidine was added 18 hours before the completion of the culturing. After completion of the culturing, the cells were trapped on a filter paper using a cell harvester and dried, and then a toluene scintillator was added thereto to measure the amount of radioactivity of [^3 H]-thymidine incorporated into cells using a scintillation counter (test group). As a control group, the same culturing was carried out without adding the solution of Compound (I) and then the amount of radioactivity of [^3 H]-thymidine incorporated into cells was measured. The T cell growth inhibition ratio was calculated based on the following formula, from which the concentration of each test compound that inhibits 50% of the growth (IC50 was calculated. [formula] (In the above formula, the radioactivity in MMC-treated AKR mouse means the radiation dose of [^3 H]-thymidine incorporated into MMC-treated AKR mouse spleen cells, and the radioactivity in B10.BR mouse means the radiation dose of [^3 H]-thymidine incorporated into B10.BR mouse lymph node cells.)

[8] = system: Enterococcus hirae ATCC 10541; type: cell-based; details: pH 7
Protocol: as §1, §2
EH: Enterococcus hirae ATCC 10541

[9] = HeLa S3, 72 hours, 37° C., Neutral Red

MIC [4] | Compound | IC50 [1, 9] | IC50 [5] | IC50 [7] | other results
 | COCON=C1/C=C/C=C\[C@H]2O[C@@H]2C[C@@H](C)OC(=O)c2c(O)cc(O)c(Cl)c2C1 [Compound 13] | 20 nM |  |  | 
 | CC(=O)Oc1cc(OC(C)=O)c2c(c1Cl)CC(=O)C=CC=CC(Cl)C(OS(=O)OC1CC(C)OC(=O)c3c(OC(C)=O)cc(OC(C)=O)c(Cl)c3CC(=O)C=CC=CC1Cl)CC(C)OC2=O (centres unmarked) [Compound 7] | 1500 nM |  |  | 
 | C[C@@H]1C[C@@H](O)C(Cl)/C=C\C=C\C(=O)Cc2c(Cl)c(O)cc(O)c2C(=O)O1 (some centres unmarked) [Compound 2] |  |  |  | T/C (tumor volume ratio) [2]: 50%
83 µg/mL (≈ 193 µM) | C[C@@H]1C[C@@H](OC=O)C(Cl)/C=C\C=C\C(=O)Cc2c(Cl)c(O)cc(O)c2C(=O)O1 (some centres unmarked) [Compound 1] |  |  |  | increased life span (ILS) [3]: 38%; T/C (tumor volume ratio) [2]: 51%
83 µg/mL (≈ 186 µM) | C[C@@H]1C[C@@H](O)C(Br)/C=C\C=C\C(=O)Cc2c(Cl)c(O)cc(O)c2C(=O)O1 (some centres unmarked) [Compound 3] |  |  | 300 nM | increased life span (ILS) [3]: 46%
 | C[C@@H]1C[C@H]2O[C@@H]2/C=C\C=C\C(=NO)Cc2c(Cl)c(O)cc(O)c2C(=O)O1 [Compound 8] | 90 nM | 20 nM | 10 nM | 
 | C[C@@H]1C[C@H]2O[C@@H]2/C=C\C=C\C(=NO)Cc2c(Cl)c(O[Si](C)(C)C(C)(C)C)cc(O[Si](C)(C)C(C)(C)C)c2C(=O)O1 [Compound 11] |  | 20 nM |  | IC50 ([1]; HeLa S3, 72 h): 120 nM
 | CC(=O)Oc1cc(OC(C)=O)c2c(c1Cl)CC(=O)/C=C/C=C\C(Cl)[C@H](OC=O)C[C@@H](C)OC2=O (some centres unmarked) [Compound 6] | 5000 nM |  |  | 
 | C[C@@H]1C[C@H]2O[C@@H]2/C=C\C=C\C(=O)Cc2c(Cl)c(O[Si](C)(C)C(C)(C)C)cc(O[Si](C)(C)C(C)(C)C)c2C(=O)O1 [Compound 10] | 3200 nM | 150 nM |  | 
 | C[C@@H]1C[C@H]2O[C@@H]2/C=C\C=C\C(=NOCCCN=[N+]=[N-])Cc2c(Cl)c(O)cc(O)c2C(=O)O1 [Compound 14] | 50 nM | < 50 nM |  | 
 | CCCCCCCCCCCCCCCC(=O)Oc1cc(OC(=O)CCCCCCCCCCCCCCC)c2c(c1Cl)CC(=O)/C=C/C=C\C(Br)[C@H](O)C[C@@H](C)OC2=O (some centres unmarked) [Compound 19] |  |  | 150 nM | 
1.3 µg/mL (≈ 1.53 µM) | CC1CC(OS(=O)OC2CC(C)OC(=O)c3c(O)cc(O)c(Cl)c3CC(=O)C=CC=CC2Cl)C(Cl)C=CC=CC(=O)Cc2c(Cl)c(O)cc(O)c2C(=O)O1 (centres unmarked) [Compound 4] | 6000 nM |  |  | increased life span (ILS) [3]: 42%; T/C (tumor volume ratio) [2]: 39%; MIC [6]: 2.6 µg/mL (≈ 3.06 µM); Minimum growth inhibition concentration (MIC), EH [8]: 2.6 µg/mL

Compound | MIC [4] | IC50 [1, 9] | IC50 [5] | IC50 [7] | other results
C[C@@H]1C[C@H]2O[C@@H]2/C=C\C=C\C(=O)Cc2c(Cl)c(O)cc(O)c2C(=O)O1 [Radicicol, radicicol] | 83 µg/mL (≈ 228 µM) |  | 180 nM | 150 nM | IC50 ([1]; HeLa S3, 72 h): 6700 nM; increased life span (ILS) [3]: 27%; T/C (tumor volume ratio) [2]: 88%; MIC [6]: 20 µg/mL (≈ 54.8 µM)
CON=C1/C=C/C=C\[C@H]2O[C@@H]2C[C@@H](C)OC(=O)c2c(O)cc(O)c(Cl)c2C1 [Compound 9] | 52 µg/mL (≈ 132 µM) | 50 nM | < 50 nM | 20 nM | MIC [6]: 6.5 µg/mL (≈ 16.5 µM)
